One data set has as its system NF-kB and PI-3K. The conditions noted are these: human tenocytes; dose and time-dependent manner; cited from earlier work.
For the next data set, the system named is primary human tenocytes. Briefly: MTT cytotoxicity test on healthy tenocytes (individual substances and their combination). It is filed as cell-based. The conditions noted are these: 24 hours. The method, then: The model is based on the use of primary human tenocytes, obtained through isolation from Achilles tendon, purchased from Zen-Bio (TEN-F), cultured and used according to the supplier's instructions. […] Preliminary cytotoxicity studies (i.e. MTT test (3-(4,5-dimethylthiazol-2-yl)-2,5-diphenyltetrazolium bromide) and the subsequent statistical analysis) were conducted on healthy tenocytes treated with the individual substances in order to identify the doses to be used for subsequent experiments, as well as the doses to be mixed to analyse synergism. Cells were seeded in 48 well multiwells, at a density of 6000 cells/well. After 48 ore, they were treated with different concentrations of vitamin C (from 0.88 μg/mL to 352 μg/mL), collagen peptides (from 100 μg/mL to 3000 μg/mL), astaxanthin (from 1 μg/mL to 1000 μg/mL) or resveratrol (from 0.1 μg/mL to 100 μg/mL) for 24 hours. The range of concentrations selected for each substance was determined based on the data reported in literature. The MTT test was conducted at the end of the treatment. […] The formazan deposits in the cells were then solubilised with isopropanol, obtaining a homogeneous solution whose absorbance can thus be measured at the spectrophotometer (absorbance at 510 nm). […]

`Oc1ccc(/C=C/c2cc(O)cc(O)c2)cc1` [resveratrol, 5-[(E)-2-(4-hydroxyphenyl)ethenyl]benzene-1,3-diol]: in the data set on NF-kB and PI-3K, the “IL-1β-induced activation of NF-kB and PI-3K” value was “capable of suppressing IL-1β-induced activation of NF-kB and PI-3K”. Besides, the “effect on cell viability (MTT test)” value with primary human tenocytes (resveratrol 50 and 100 μg/ml) is reported as “negative effect on cell viability”. Turning to `CC1=C(/C=C/C(C)=C/C=C/C(C)=C/C=C/C=C(C)/C=C/C=C(C)/C=C/C2=C(C)C(=O)[C@@H](O)CC2(C)C)C(C)(C)C[C@H](O)C1=O` [astaxanthin], the “toxicity / cell viability (MTT test)” value in the data set on primary human tenocytes (at the tested doses (collagen 100-3000 μg/mL, astaxanthin 1-1000 μg/mL), results not reported in detail) is given as “devoid of toxicity”.

The values above are taken from patent publication US20230024304A1, “A MULTICOMPONENT COMPOSITION COMPRISING A COLLAGEN, RESVERATROL AND ASTAXANTHIN AND THE USE THEREOF FOR THE TREATMENT OF TENDINOPATHIES” (KOLINPHARMA S.P.A., priority 2019, published 2023).
